Where two headings read alike, the source gives them in different places.
How the values were obtained:
c-kit kinase enzyme = target: T1, c-kit kinase enzyme (Homo sapiens, UniProt P10721); experiment: C-kit Homogeneous Time Resolved Fluorescent (HTRF) kinase assay; type: biochemical; conditions: c-kit catalytic domain, biotinylated Her-2 peptide substrate, ATP
T1 construct: (catalytic domain, N-terminal GST tagged, unphosphorylated)

[1] = system: SCF-stimulated UT-7 cells; conditions: Homo sapiens
From the text: SCF and GM-CSF Stimulated UT7 Proliferation/Survival Assay:
The purpose of this assay is to test the general anti-proliferative/cytotoxic effect of small molecule compounds on SCF or GM-CSF-stimulated UT-7 cells. Preventing SCF stimulated proliferation/survival is consistent with an on-mechanism effect whereas inhibition of GM-CSF driven proliferation/survival is indicative of off-target effects. UT-7 is a factor dependent human megakaryoblastic leukemia cell line that can be grown in either IL-3, GM-CSF, EPO or SCF (these cells have been confirmed to carry wild type c-kit receptor). Cells are maintained in growth media (IMDM, 10% HI-FBS, 1×PGS, 1 ng/mL GM-CSF). […] Small molecule compounds are first diluted in 100% DMSO, then diluted 1:4 in RT assay media. […] The treated cells are incubated in a 37° C. humidified incubator with 5% CO2 for 3 days. The amount of ATP is then measured as a surrogate marker for cell viability. […] The amount of SCF or GM-CSF stimulated viable cells in the presence of compound compared with in the presence of vehicle alone (HI control) is calculated using the formula: % control (POC)=(cpd−average LO)/(average HI−average LO)*100. Data (consisting of POC and inhibitor concentration in μM) is fitted to a 4-parameter equation (y=A+((B−A)/(1+((x/C)^D))), where A is the minimum y (POC) value, B is the maximum y (POC), C is the x (cpd concentration) at the point of inflection and D is the slope factor) using a Levenburg-Marquardt non-linear regression algorithm.

[2] = UT7, 72 h, read-out: UT7 Proliferation cell assay data
[3] = read-out: HTRF Fret enzyme assay data

T1 sequence (P10721 589-937 limits assumed): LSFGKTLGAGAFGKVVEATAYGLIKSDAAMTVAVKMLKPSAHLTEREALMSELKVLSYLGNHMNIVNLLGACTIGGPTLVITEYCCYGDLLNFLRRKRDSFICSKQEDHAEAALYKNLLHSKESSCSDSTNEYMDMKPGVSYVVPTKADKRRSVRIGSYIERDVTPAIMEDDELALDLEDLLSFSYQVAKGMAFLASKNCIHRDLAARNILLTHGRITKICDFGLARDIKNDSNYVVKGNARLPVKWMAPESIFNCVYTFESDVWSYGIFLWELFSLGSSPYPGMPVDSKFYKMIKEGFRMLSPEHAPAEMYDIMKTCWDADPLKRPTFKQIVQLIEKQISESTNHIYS

Row | Structure (SMILES) | IC50 (c-kit kinase enzyme; HTRF Fret enzyme assay data) [nM] | IC50 [1, 2] [nM] | IC50 ([1]; UT7, read-out: average IC50 value in the SCF stimulated UT7 proliferation and survival assay) [nM] | IC50 (c-kit kinase enzyme; [3]) [nM]
1 | Cc1ccn(CCC(C)(C)C)c(=O)c1-c1ccc2nc(N)ncc2c1 [Example 57, 3-(2-aminoquinazolin-6-yl)-1-(3,3-dimethylbutyl)-4-methylpyridin-2(1H)-one] | 16.3 | 43 | – | –
2 | CC(C)=CCn1ccc(C)c(-c2ccc3nc(N)ncc3c2)c1=O [Example 54, 3-(2-aminoquinazolin-6-yl)-4-methyl-1-(3-methylbut-2-enyl)pyridin-2(1H)-one] | 23.9 | 12 | ≤ 1000 | –
3 | Cc1ccn(Cc2ccccc2)c(=O)c1-c1ccc2nc(N)ncc2c1 [Example 24, 3-(2-aminoquinazolin-6-yl)-1-benzyl-4-methylpyridin-2(1H)-one] | 6 | 13 | – | –
4 | CCOC(=O)c1ccc(-n2ccc(C)c(-c3ccc4nc(N)ncc4c3)c2=O)cc1 [Example 29, ethyl 4-(3-(2-aminoquinazolin-6-yl)-4-methyl-2-oxopyridin-1(2H)-yl)benzoate] | – | 66 | – | 17
5 | Cc1ccn(-c2ccc(CN3CCOCC3)cc2)c(=O)c1-c1ccc2nc(N)ncc2c1 [Example 35, 3-(2-aminoquinazolin-6-yl)-4-methyl-1-(4-(morpholinomethyl)phenyl)pyridin-2(1H)-one] | 31 | 200 | – | –
6 | Cc1ccn(-c2ccc(F)c(Cl)c2)c(=O)c1-c1ccc2nc(N)ncc2c1 [Example 45, 3-(2-aminoquinazolin-6-yl)-1-(3-chloro-4-fluorophenyl)-4-methylpyridin-2(1H)-one] | 98.9 | 40 | – | –
7 | Cc1ccn(-c2ccc3ncccc3c2)c(=O)c1-c1ccc2nc(N)ncc2c1 [Example 16, 3-(2-amino-6-quinazolinyl)-4-methyl-1-(6-quinolinyl)-2(1H)-pyridinone] | 5.29 | 56.8 | – | –
8 | Cc1ccn(-c2cc(Cl)cc(Cl)c2)c(=O)c1-c1ccc2nc(N)ncc2c1 [Example 46, 3-(2-aminoquinazolin-6-yl)-1-(3,5-dichlorophenyl)-4-methylpyridin-2(1H)-one] | 44 | 35 | – | –
9 | COc1cccc(-n2ccc(C)c(-c3ccc4nc(N)ncc4c3)c2=O)c1 [Example 22, 3-(2-amino-6-quinazolinyl)-4-methyl-1-(3-(methyloxy)phenyl)-2(1H)-pyridinone] | – | 27.7 | – | 65.3
10 | CCC(C)CCn1ccc(C)c(-c2ccc3nc(N)ncc3c2)c1=O (centres unmarked) [Example 58, 3-(2-aminoquinazolin-6-yl)-4-methyl-1-(3-methylpentyl)pyridin-2(1H)-one] | 2.51 | 9 | – | –
11 | COc1cc(-n2ccc(C)c(-c3ccc4nc(N)ncc4c3)c2=O)cc(C(F)(F)F)c1 [Example 11, 3-(2-aminoquinazolin-6-yl)-1-(3-methoxy-5-(trifluoromethyl)phenyl)-4-methylpyridin-2(1H)-one] | 11.1 | 58.8 | – | –
12 | Cc1ccn(-c2ccc(-n3cccn3)cc2)c(=O)c1-c1ccc2nc(N)ncc2c1 [Example 38, 1-(4-(1H-pyrazol-1-yl)phenyl)-3-(2-aminoquinazolin-6-yl)-4-methylpyridin-2(1H)-one] | – | 18 | – | 10
13 | Cc1ccn(-c2ccc(-c3ncco3)cc2)c(=O)c1-c1ccc2nc(N)ncc2c1 [Example 7, 3-(2-aminoquinazolin-6-yl)-4-methyl-1-(4-(oxazol-2-yl)phenyl)pyridin-2(1H)-one] | 21.6 | 15.5 | – | –
14 | CC(=O)N1CC(C)(C)c2ccc(-n3ccc(C)c(-c4ccc5nc(N)ncc5c4)c3=O)cc21 [Example 19, 1-(1-acetyl-3,3-dimethyl-2,3-dihydro-1H-indol-6-yl)-3-(2-amino-6-quinazolinyl)-4-methyl-2(1H)-pyridinone] | 9.75 | 226 | – | –
15 | Cc1ccn(-c2ccc(Cl)cc2)c(=O)c1-c1ccc2nc(N)ncc2c1 [Example 32, 3-(2-aminoquinazolin-6-yl)-1-(4-chlorophenyl)-4-methylpyridin-2(1H)-one] | – | 14 | – | 20
16 | Cc1ccn(-c2cccc(C#N)c2)c(=O)c1-c1ccc2nc(N)ncc2c1 [Example 9, 3-(3-(2-aminoquinazolin-6-yl)-4-methyl-2-oxopyridin-1(2H)-yl)benzonitrile] | 88.8 | 107 | – | –
17 | Cc1cc(C)cc(-n2ccc(C)c(-c3ccc4nc(N)ncc4c3)c2=O)c1 [Example 8, 3-(2-aminoquinazolin-6-yl)-1-(3,5-dimethylphenyl)-4-methylpyridin-2(1H)-one] | 16.1 | 50.1 | – | –

Reference: patent US8063055B2, “Substituted pyridone compounds and methods of use” (Amgen Inc., priority 2007, dated 2011)
